Experimental data reported in ChEMBL document CHEMBL1132266, “Synthesis and evaluation of 1-position-modified inositol 1,4,5-trisphosphate analogs” (Bioorg Med Chem Lett, 1999).

Target: Inositol 1,4,5-trisphosphate-gated calcium channel ITPR3 (Homo sapiens, UniProt Q14573)
Assay: Dissociation constant of compound was measured in IP3-binding domain(IBD) of human Inositol 1,4,5-trisphosphate receptor at pH 7.4

Sequence of Inositol 1,4,5-trisphosphate-gated calcium channel ITPR3 (Q14573 whole entry, the tested form may be a part): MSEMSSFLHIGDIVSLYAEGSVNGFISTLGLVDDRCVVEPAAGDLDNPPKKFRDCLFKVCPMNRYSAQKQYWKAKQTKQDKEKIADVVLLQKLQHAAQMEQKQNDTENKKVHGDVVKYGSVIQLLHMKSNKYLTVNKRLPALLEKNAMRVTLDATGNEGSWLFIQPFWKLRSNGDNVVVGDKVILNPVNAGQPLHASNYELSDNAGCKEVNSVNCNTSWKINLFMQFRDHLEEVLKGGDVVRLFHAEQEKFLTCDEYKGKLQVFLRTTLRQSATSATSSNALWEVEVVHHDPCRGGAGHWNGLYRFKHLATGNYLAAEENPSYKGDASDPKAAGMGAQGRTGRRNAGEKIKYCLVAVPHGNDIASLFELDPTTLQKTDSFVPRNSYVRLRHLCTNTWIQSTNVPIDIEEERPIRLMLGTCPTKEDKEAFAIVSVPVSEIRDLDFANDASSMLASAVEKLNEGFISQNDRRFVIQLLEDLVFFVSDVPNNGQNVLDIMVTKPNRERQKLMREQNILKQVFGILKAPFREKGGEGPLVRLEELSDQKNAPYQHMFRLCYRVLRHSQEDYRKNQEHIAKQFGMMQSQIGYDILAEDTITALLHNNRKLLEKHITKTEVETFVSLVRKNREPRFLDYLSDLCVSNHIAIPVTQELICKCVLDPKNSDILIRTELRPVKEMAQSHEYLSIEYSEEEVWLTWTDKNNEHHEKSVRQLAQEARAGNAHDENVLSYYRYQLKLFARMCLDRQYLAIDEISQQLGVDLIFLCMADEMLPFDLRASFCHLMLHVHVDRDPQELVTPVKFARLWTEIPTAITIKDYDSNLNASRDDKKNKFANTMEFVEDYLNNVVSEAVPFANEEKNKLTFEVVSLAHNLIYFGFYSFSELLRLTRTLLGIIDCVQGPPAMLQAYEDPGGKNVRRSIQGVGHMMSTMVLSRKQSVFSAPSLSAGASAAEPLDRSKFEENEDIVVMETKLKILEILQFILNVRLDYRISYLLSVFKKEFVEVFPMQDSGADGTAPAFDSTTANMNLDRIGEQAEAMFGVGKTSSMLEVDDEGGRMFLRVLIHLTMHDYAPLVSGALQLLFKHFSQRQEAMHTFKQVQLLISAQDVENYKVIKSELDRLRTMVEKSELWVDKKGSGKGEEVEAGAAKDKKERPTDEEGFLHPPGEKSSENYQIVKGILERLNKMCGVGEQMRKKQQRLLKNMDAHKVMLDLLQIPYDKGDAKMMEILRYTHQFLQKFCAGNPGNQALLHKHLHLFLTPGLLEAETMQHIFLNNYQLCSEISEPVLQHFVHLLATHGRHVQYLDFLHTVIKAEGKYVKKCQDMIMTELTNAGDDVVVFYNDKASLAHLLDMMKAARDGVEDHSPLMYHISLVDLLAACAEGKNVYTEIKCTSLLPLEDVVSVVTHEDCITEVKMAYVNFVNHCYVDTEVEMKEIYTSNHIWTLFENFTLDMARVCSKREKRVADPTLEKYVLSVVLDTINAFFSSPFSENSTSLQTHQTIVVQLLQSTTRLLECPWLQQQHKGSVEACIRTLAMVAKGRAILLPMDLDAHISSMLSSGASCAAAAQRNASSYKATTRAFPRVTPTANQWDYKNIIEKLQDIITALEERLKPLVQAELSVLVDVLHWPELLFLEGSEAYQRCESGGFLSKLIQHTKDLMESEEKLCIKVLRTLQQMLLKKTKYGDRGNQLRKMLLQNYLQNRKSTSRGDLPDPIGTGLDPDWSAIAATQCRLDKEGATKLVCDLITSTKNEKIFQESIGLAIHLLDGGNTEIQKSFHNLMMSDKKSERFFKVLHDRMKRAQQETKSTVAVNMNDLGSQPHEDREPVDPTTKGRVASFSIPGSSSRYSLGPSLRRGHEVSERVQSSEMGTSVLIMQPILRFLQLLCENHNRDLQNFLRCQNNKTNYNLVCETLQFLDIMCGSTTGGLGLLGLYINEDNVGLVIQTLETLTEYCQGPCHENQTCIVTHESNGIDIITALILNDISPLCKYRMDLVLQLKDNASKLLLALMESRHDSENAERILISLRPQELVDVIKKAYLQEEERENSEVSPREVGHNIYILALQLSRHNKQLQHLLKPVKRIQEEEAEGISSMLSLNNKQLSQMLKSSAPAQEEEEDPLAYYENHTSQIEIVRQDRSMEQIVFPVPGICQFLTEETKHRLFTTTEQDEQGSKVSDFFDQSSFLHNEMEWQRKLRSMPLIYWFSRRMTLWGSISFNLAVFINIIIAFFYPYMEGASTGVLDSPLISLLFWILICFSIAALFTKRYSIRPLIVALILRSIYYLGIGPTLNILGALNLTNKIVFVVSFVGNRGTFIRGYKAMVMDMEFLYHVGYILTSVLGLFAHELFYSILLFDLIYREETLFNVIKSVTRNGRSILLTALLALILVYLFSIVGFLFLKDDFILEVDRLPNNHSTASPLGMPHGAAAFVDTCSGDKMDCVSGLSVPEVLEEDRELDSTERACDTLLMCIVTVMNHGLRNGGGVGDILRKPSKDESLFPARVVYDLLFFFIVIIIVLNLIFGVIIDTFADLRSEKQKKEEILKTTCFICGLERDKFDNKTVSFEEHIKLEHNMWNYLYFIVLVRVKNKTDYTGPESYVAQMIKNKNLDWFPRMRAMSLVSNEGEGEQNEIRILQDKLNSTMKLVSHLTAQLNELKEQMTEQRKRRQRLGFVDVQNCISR

Row | Structure (SMILES) | Kd
1 | O=C(NCCCOP(=O)(O)O[C@@H]1[C@H](O)[C@H](O)[C@@H](OP(=O)(O)O)[C@H](OP(=O)(O)O)[C@H]1O)Oc1ccc2c(c1)Oc1cc(O)ccc1C21OC(=O)c2ccccc21 (stereo partly drawn) | 188 nM
2 | NCCCOP(=O)(O)O[C@@H]1[C@H](O)[C@H](O)[C@@H](OP(=O)(O)O)[C@H](OP(=O)(O)O)[C@H]1O | 1120 nM
3 | CN(C)c1ccc(C(=C2C=CC(=[N+](C)C)C=C2)c2ccc(C(=O)NCCCOP(=O)(O)O[C@@H]3[C@H](O)[C@H](O)[C@@H](OP(=O)(O)O)[C@H](OP(=O)(O)O)[C@H]3O)cc2)cc1 | 1.17 nM
